Like-named read-outs stand apart in the source and are kept apart here.
How the values were obtained:
WI38 cells [1] = conditions: 7 days, vs control; for change in PTHrP receptor mRNA expression: means±SE
WI38 cells [2] = tested on: WI38 cells
Method: Lipogenic and myogenic status of cultured WI38 cells was assessed by simultaneous staining for lipid droplets and -SMA. Lipids were stained using oil red 0 staining, and -SMA expression was assessed by using anti-SMA (cat. no. A2547, 1:1,000, mouse monoclonal IgG2, Sigma) primary antibody. […] At the end of the experimental period, slides were fixed in freshly prepared 4% paraformaldehyde. Fixed slides were washed in PBS, blocked with 3% normal goat serum (Jackson Immunoresearch Lab) in PBS for 30 min at room temperature to block nonspecific binding, and then incubated in primary antibody overnight at 4° C. Secondary biotinylated anti-mouse IgG2 was used at 1:200 dilution for 30 min. The slides were then washed 3× with PBS and with double-distilled water 2× and were then incubated with oil red 0 (Sigma) for 15-30 min. Slides were rinsed 3× for 5 min and then mounted and coverslipped with Vestashield mounting medium with 4′,6′-diamidino-2-phenylindole (Vector Laboratories) visualization under a fluorescence microscope.

WI38 cells [3] = assay: Reversal experiment, immunofluorescence double staining (ADRP or lipid droplets and αSMA) in WI38 cells; assay type: cell-based, human
Method: Cells were grown in minimum essential medium (MEM) +10% fetal bovine serum at 37° C. in six-well plates, two well slides, and 60-mm and 100-mm culture dishes, as needed. […] Subsequently, the cells were treated with rosiglitazone (RGZ) (1×10^−5 M) (a PPARγ agonist), PTHrP (5×10^−7 M), or DBcAMP (1×10^−5 M) for 7 days, and the expression of PTHrP receptor, PPARγ, ADRP, calponin, and cSMA was determined by Western analysis and immunohistochemistry. Simultaneously, fibroblast function was characterized by measuring their capacity to take up triglycerides. Some experiments were performed in the presence of a specific PPARγ antagonist, GW9662. Medium containing fresh chemicals was added daily, and at the end of the experimental period the cells were processed as needed.
The lipogenic and myogenic status of cultured WI38 cells was assessed by simultaneous staining for either lipid droplets or ADRP and αSMA. Lipids were detected by using either oil red 0 staining or ADRP expression (polyclonal anti-ADRP 1:500), and αSMA expression was assessed by using anti-αSMA (1:1000, mouse monoclonal IgG2a, Sigma, catalog No. A2547) primary antibody. […] At the end of the experimental period, slides were fixed in freshly prepared 4% paraformaldehyde. […] Slides were rinsed three times for 5 min and then mounted and visualized under a fluorescence microscope.

whole lung tissue = conditions: nicotine 2 mg/kg i.p. once daily to dam, e6 to e20
[4] = nicotine 1×10^6 M (so in the source)

CN1CCCC1c1cccnc1 (stereo not drawn) [nicotine]
change in PTHrP receptor mRNA expression (WI38 cells [1]; [4]): 40±3%
change in ADRP mRNA expression (WI38 cells [1]; [4]): −47±4%
change in PPAR mRNA expression (WI38 cells [1]; [4]): −37±3%
change in α-SMA mRNA expression (WI38 cells [1]; [4]): +140±5%
change in PTHrP receptor mRNA expression (WI38 cells [1]; nicotine 1×10^−9 M): −33±8%
change in ADRP mRNA expression (WI38 cells [1]; nicotine 1×10^−9 M): −41±8%
change in PPAR mRNA expression (WI38 cells [1]; nicotine 1×10^−9 M): −26±7%
change in α-SMA mRNA expression (WI38 cells [1]; nicotine 1×10^−9 M): +38±4%
lipid droplet and α-SMA staining (WI38 cells [2]): decreased lipid staining and increased -SMA staining
ADRP, lipid droplet and αSMA staining (WI38 cells [3]): marked decreases in ADRP and lipid droplet staining and a marked increase in αSMA staining
αSMA mRNA expression in whole lung (whole lung tissue): significant increase
PTHrP receptor, PPARγ and ADRP mRNA expression in whole lung (whole lung tissue; vs controls, p<0.05): significant decrease

— patent US9173875B2, “Treatment for nicotine-induced lung disease using peroxisome proliferator-activated receptor gamma agonists” (Los Angeles Biomedical Research Institute at Harbor-UCLA …, priority 2006, dated 2015)
